Assay results reported in article PMC6021032, “Antimycobacterial activity of nitrogen heterocycles derivatives: 7-(pyridine-4-yl)-indolizine derivatives. Part VII^8–12” (Journal of Enzyme Inhibition and Medicinal Chemistry, 2017).

Key:
Mtb H37Rv = experiment: LORA parallel plates, oxygen-deprived bacteria incubated under aerobic conditions (normal oxygen); type: cell-based, Mycobacterium tuberculosis
[1] = tested on: Mycobacterium tuberculosis H37Rv; experiment: Primary screen (Cycle 1): MIC, IC50, IC90 under aerobic conditions; type: cell-based
[2] = tested on: THP-1 cell line infected with Mtb; experiment: Intracellular activity assay, luminescence; type: cell-based, Mycobacterium tuberculosis; conditions: Mtb-infected THP-1 cells, 72 h
Protocol: Since the overall efficacy of any anti TB drug will be improved by its ability to traffic into the macrophage phagosome containing replicating bacteria, we evaluated the intracellular activity of compounds[24]. This was measured by using THP-1 cell line infected with Mtb. Infected cells were exposed to compounds for 72 h and viable bacterial counts were measured using luminescence as a measure of intracellular growth.
Assay (Promega) which uses ATP as an indicator of cell viability. Relative luminescent units (RLU) were measured using a Biotek Synergy 4 plate reader. The dose response curve was fitted using the Levenberg–Marquardt algorithm. The IC50 was defined as the compound […]
Intracellular Activity Assay
The activity of compounds against intracellular bacteria was determined by measuring viability in infected THP-1 cell after 3 days in the presence of test compounds. Compounds were prepared as 10-point three-fold serial dilutions in DMSO. The highest concentration of […]
THP-1 cells were cultured in complete RPMI and differentiated into macrophage-like cells using 80 nM PMA overnight at 37°C, 5% CO2. THP-1 cells were infected with a luminescent strain of H37Rv (which constitutively expresses luxABCDE) at a multiplicity of infection of 1 and incubated overnight at 37°C, 5% CO2. Infected cells were recovered using Accutase/EDTA solution, washed twice with PBS to remove extracellular bacteria and seeded into assay pates. Compound dilutions were added to a final DMSO concentration of 0.5%.
Assay plates were incubated for 72 h at 37°C, 5% CO2. Each run included isoniazid as a control. Relative luminescent units (RLU) were measured using a Biotek Synergy 2 plate reader. The dose response curve was fitted using the Levenberg–Marquardt algorithm. The […]
inhibition of growth respectively.
3. Cycle 3 – Absorption, distribution, metabolism, excretion and toxicity (ADMET)
3.1. Plasma Protein Binding Assay
Compounds were added to human plasma at a fixed concentration of 5 µM. The mixture was dialyzed in a RED device (Rapid Equilibrium Dialysis, Pierce) against PBS and incubated on an orbital shaker for 4 h at 37 °C. Aliquots from plasma and PBS sides were collected; an equal volume of PBS was added to the plasma sample, and an equal volume of plasma was added to the PBS sample. Three volumes of methanol (containing the internal binding standard propranolol) was added to precipitate the proteins and release the compound.
Each compound was tested in duplicate. Samples were centrifuged, the supernatant was […]

Mycobacterium abscessus = experiment: MIC, IC50, IC90 against nontuberculous mycobacteria (OD590); type: cell-based; conditions: M. abscessus
M. tuberculosis H37Rv = experiment: Cycle 2 repeat of MIC, IC50, IC90 under aerobic conditions (lower starting concentrations); type: cell-based, Mycobacterium tuberculosis; conditions: revaluation
[3] = tested on: THP-1 human monocytic cell line; experiment: Cytotoxicity, THP-1 cell viability (CellTiter-Glo); conditions: read-out: Cytotoxicity IC50; THP-1 cells, 50% loss in viability, 3 days
Mycobacterium avium = experiment: MIC against nontuberculous mycobacteria (Alamar blue); type: cell-based; conditions: M. avium
in vitro = conditions: human
[4] = M. tuberculosis H37Rv, aerobic conditions, primary screen

| Compound | IC50 (Mtb H37Rv) [µM] | IC90 (Mtb H37Rv) [µM] | MIC (Mtb H37Rv; oxygen-deprived bacteria, aerobic 5 d) [µM] | IC50 [1, 4] [µM] | IC90 [1, 4] [µM] | MIC [1, 4] [µM] | MIC ([1]; MIC value taken from the first MIC assay) [µM] | IC50 ([2]; read-out: IC50 intracell) [µM] | IC90 ([2]; read-out: IC90 intracell) [µM] | IC50 (Mycobacterium abscessus) [µM] | IC90 (Mycobacterium abscessus) [µM] | IC50 (M. tuberculosis H37Rv; aerobic) [µM] | IC90 (M. tuberculosis H37Rv; aerobic) [µM] | MIC (M. tuberculosis H37Rv; repeated at lower starting concentrations, read-out: MIC aerobic condition) [µM] | IC50 [3] [µM] | MIC (Mycobacterium avium) [µM] | recovery at 4 h, 5 µM (in vitro) [%] |
| --- | --- | --- | --- | --- | --- | --- | --- | --- | --- | --- | --- | --- | --- | --- | --- | --- | --- |
| 4-[3-(4-Chlorophenyl)-1-(ethoxycarbonyl)indolizine-7-yl)-1-(2-(4-methoxyphenyl)-2-oxoethyl)pyridine-1-ium bromide [Compound 6c] | 8.1 | 23 | 75 | 12 | 14 | 15 | 15 | 7 | 34 | 16 | 21 | 6.7 | 9.5 | 9.5 | 4.1 | 50 | – |
| CC(=O)CC(c1ccccc1)c1c(O)c2ccccc2oc1=O (centres unmarked) [Warfarin] | – | – | – | – | – | – | – | – | – | – | – | – | – | – | – | – | 96.7 |
